In US11434205B2, “Substituted imidazole carboxylate derivatives and the use thereof” (priority 2018, dated 2022):
Where two headings read alike, the source gives them in different places.

Key:
rats [1] = tested on: rats
Experimental: Pharmacological Effects of the Compounds on Continuous Infusion in Rats
Adult male Sprague-Dawley rats with body weight ranging from 250 to 300 gm were selected for continuous infusion test. […] Time to recovery of righting reflex from stopping infusion, and time to fully awake from stopping infusion were recorded.

rats [2] = assay type: in vivo, rat; settings: rats of the MAP/HR figures, 2×ED50, tail vein
rats [3] = assay type: in vivo, rat; settings: rats of the MAP/HR figures, 2×ED50, tail vein; same value in min
Experimental: The Effects of the Compounds on the Circulatory Function were Measured in Rats Using a Small Animal Implanted Physiological Signal Telemetry System
The anesthetic activity of the compounds was assessed in rats using a LORR assay and the up and down method was used to determine ED50. […] A small animal implantable physiological signal telemetry system from DSI (Data Science International, Inc.) was used to measure the changes in heart rate (HR) and blood pressure in rats during 30 min after administration. Then mean arterial pressure (MAP) and HR were used as representative indicators to determine hemodynamic stability of the compounds of the present invention in rats.
A small animal implantable physiological signal telemetry system from DSI (Data Science International, Inc.) including implants (RATHD-521, DSI, United States), receiver boards (RPC-1, DSI, United States), signal conversion devices (DEM, DSI, USA), perfusion glue (DSI, USA), fibrin membrane (DSI, USA), etc.
First, animal models were established. A left ventricular catheter, an abdominal aortic catheter and ECG wires were placed into rats. At least one week after surgery, data were recorded.
Administration procedure: rats were put into a restraint device with a 20 G indwelling catheter placed into a lateral tail vein. After administration of 0.2 mL heparin, a pre-filled extension tube was attached and taped to the tail vein to secure the extension tube. Then the rats were removed from the restraint device to a cage before placing them together on the signal receiver. […] Finally, the pharmacological effects, adverse reactions, and behavioural manifestations of the rats were observed and recorded
Data collection: After setting the data collection parameters on the software, the power of the implant was turned on to start data collection. In this experiment, data recording frequency was set to 15 s. Data collection was continuously recorded for 30 min before and after administration of the drugs in rats. After data acquisition, the test was stopped.

[4] = tested on: secretion of cortisol, H295R cell line; assay: cells; assay type: cell-based; settings: for EC50: read-out: EC50 (Cortisol)
Experimental: (§1) The Effects of the Compounds on Adrenocortical Function In Vitro Test
(§2) Then secretion of the cortisol and corticosterone in the supernatant, was measured using HPLC-MS/MS method to determine whether the compounds of the present invention had adrenotoxic potential.

[5] = tested on: secretion of corticosterone, H295R cell line; assay: cells; assay type: cell-based; settings: for EC50: read-out: EC50 (Corticosterone)
Experimental: as §1, §2

[6] = emulsion, continuous infusion at 2×MIR
[7] = continuous tail vein infusion at 2×MIR, LORR maintained 1 hour, Table D4
[8] = H295R cell line, 0.1-10000 nM, HPLC-MS/MS, Table D3
[9] = H295R cell line, 0.1-10000 nM, HPLC-MS/MS, Table E3
[10] = continuous tail vein infusion at 2×MIR, LORR maintained 1 hour, Table E4

Compound | recovery time of the test animals' righting reflex (rats [2]) | recovery time of the test animals' righting reflex (rats [3]) | EC50 ([4]; Homo sapiens, NCI-H295R) | EC50 ([5]; Homo sapiens, NCI-H295R) | Cortisol as an indicator to determine the presence of inhibition [4, 9] | Corticosterone as an indicator to determine the presence of inhibition [5, 9] | also measured
C[C@H](c1ccccc1)n1cncc1C(=O)OCC1(CO)CC1 [Compound A7] | 110 s | 1.83 min |  |  |  |  | Recovery time after stopping infusion (rats [1]; after 1 hour infusion at 2×MIR): 7 to 9 min; Adverse reactions: Tremor (incidence) (rats [1]; continuous infusion 2×MIR): Tremor (4/6); Onset time (rats [1]; [6]): 2 to 3 min
COCC1(CSC(=O)c2cncn2[C@H](C)c2ccccc2)CCC1 [Compound A28] | 435 s | 7.25 min | > 1 µM | > 1 µM |  |  | Cortisol as an indicator to determine the presence of inhibition ([4]; H295R, Table A3): 0; Corticosterone as an indicator to determine the presence of inhibition ([5]; H295R, Table A3): 0
CCC1(OC(=O)c2cncn2[C@H](C)c2ccccc2)COC1 [Compound B18] | 279 s | 4.65 min | > 1 µM | > 1 µM |  |  | Recovery time after stopping infusion (rats [1]; after 1 hour infusion at 2×MIR): 15 to 18 min; Adverse reactions: Tremor (incidence) (rats [1]; continuous infusion 2×MIR): Tremor (4/6); Onset time (rats [1]; [6]): 3 to 4 min; Cortisol as an indicator to determine the presence of inhibition ([4]; H295R, Table B3): 0; Corticosterone as an indicator to determine the presence of inhibition ([5]; H295R, Table B3): 0
C[C@H](c1ccccc1)n1cncc1C(=O)OC(C)(C)C#CC#CC(C)(C)O [Compound D38] | 193 s | 3.22 min | > 10 µM | > 10 µM |  |  | Onset time (rats [1]; [7]): 3 to 4 min; Recovery time after stopping infusion (rats [1]; [7]): 12 to 14 min; Types and incidence of adverse reactions (rats [1]; [7]): Tremor (5/6); Cortisol as an indicator to determine the presence of inhibition [4, 8]: 0; Corticosterone as an indicator to determine the presence of inhibition [5, 8]: 0
COCC1(COC(=O)c2c(Cl)ncn2[C@H](C)c2ccccc2)CCC1 [Compound E102] | 288 s | 4.80 min | > 10 µM | > 10 µM | 0 | 0 | 
CC#CCOC(=O)c1c(C(F)(F)F)ncn1[C@H](C)c1ccccc1 [Compound E161] | 140 s | 2.33 min | > 10 µM | > 10 µM | 0 | 0 | 
C/C(OC(=O)c1c(Cl)nc(Cl)n1[C@H](C)c1ccccc1)=C1\CCCC1=O [Compound E146] | 201 s | 3.35 min | > 10 µM | > 10 µM | 0 | 0 | 
C[C@H](c1ccccc1)n1cnc(F)c1C(=O)OC(C)(C)C [Compound E12] | 214 s | 3.57 min | > 10 µM | > 10 µM | 0 | 0 | Onset time (rats [1]; [10]): 2 to 3 min; Recovery time after stopping infusion (rats [1]; [10]): 11 to 23 min; Types and incidence of adverse reactions (rats [1]; [10]): Tremor (2/6)
CC(OC(=O)c1c(F)ncn1C(C)c1ccccc1)=C1CCCC1=O (centres unmarked) [Compound E31] | 105 s | 1.75 min |  |  | 0 | 0 | Onset time (rats [1]; [10]): 3 to 4 min; Recovery time after stopping infusion (rats [1]; [10]): 8 to 11 min; Types and incidence of adverse reactions (rats [1]; [10]): Tremor (3/6); EC50 [4, 9]: > 10 µM; EC50 [5, 9]: > 10 µM
CCCC1(COC(=O)c2cncn2[C@H](C)c2ccccc2)COC1 [Compound B10] | 81 s | 1.35 min | > 1 µM | > 1 µM |  |  | Recovery time after stopping infusion (rats [1]; after 1 hour infusion at 2×MIR): 9 to 12 min; Adverse reactions: Tremor (incidence) (rats [1]; continuous infusion 2×MIR): Tremor (3/6); Onset time (rats [1]; [6]): 3 to 4 min; Cortisol as an indicator to determine the presence of inhibition ([4]; H295R, Table B3): 0; Corticosterone as an indicator to determine the presence of inhibition ([5]; H295R, Table B3): 0
C=C=CC1(OC(=O)c2c(C(F)(F)F)ncn2[C@H](C)c2ccccc2)COC1 [Compound E163] | 95 s | 1.58 min |  |  | 0 | 0 | EC50 [4, 9]: > 10 µM; EC50 [5, 9]: > 10 µM
C=CCC1(OC(=O)c2cncn2[C@H](C)c2ccccc2)COC1 [Compound D41] | 355 s | 5.92 min | > 10 µM | > 10 µM |  |  | Cortisol as an indicator to determine the presence of inhibition [4, 8]: 0; Corticosterone as an indicator to determine the presence of inhibition [5, 8]: 0
CCOC(=O)c1c(C(F)(F)F)ncn1[C@H](C)c1ccccc1 [Compound E164] | 77 s | 1.28 min | > 10 µM | > 10 µM | 0 | 0 | 
C[C@H](c1ccccc1)n1cncc1C(=O)OCC1CC1 [Compound A15] | 193 s | 3.22 min |  |  |  |  | Recovery time after stopping infusion (rats [1]; after 1 hour infusion at 2×MIR): 12 to 15 min; Adverse reactions: Tremor (incidence) (rats [1]; continuous infusion 2×MIR): Tremor (5/6); Onset time (rats [1]; [6]): 2 to 3 min
C[C@H](c1ccccc1)n1cncc1C(=O)SCC1COC1 [Compound B29] | 112 s | 1.87 min | > 10 µM | > 10 µM |  |  | Recovery time after stopping infusion (rats [1]; after 1 hour infusion at 2×MIR): 8 to 10 min; Types and incidence of adverse reactions (rats [1]; continuous infusion 2×MIR, in words): No; Onset time (rats [1]; [6]): 2 to 3 min; Cortisol as an indicator to determine the presence of inhibition ([4]; H295R, Table B3): 0; Corticosterone as an indicator to determine the presence of inhibition ([5]; H295R, Table B3): 0
C=CC1(OC(=O)c2cncn2[C@H](C)c2ccccc2)CCCCC1 [Compound D35] | 200 s | 3.33 min | > 1 µM | > 1 µM |  |  | Cortisol as an indicator to determine the presence of inhibition [4, 8]: 0; Corticosterone as an indicator to determine the presence of inhibition [5, 8]: 0
C=C(OCC)C1(OC(=O)c2cncn2[C@H](C)c2ccccc2)COC1 [Compound D2] | 355 s | 5.92 min | > 1 µM | > 1 µM |  |  | Cortisol as an indicator to determine the presence of inhibition [4, 8]: 0; Corticosterone as an indicator to determine the presence of inhibition [5, 8]: 0
C[C@H](c1ccccc1)n1cncc1C(=O)SCC1CC(F)(F)C1 [Compound A45] | 200 s | 3.33 min |  |  |  |  | 
COCC1(COC(=O)c2c(C(F)(F)F)ncn2[C@H](C)c2ccccc2)CCC1 [Compound E157] | 182 s | 3.03 min | > 10 µM | > 10 µM | 0 | 0 | 
CC(=O)C(C)(C)OC(=O)c1c(C(F)(F)F)ncn1[C@H](C)c1ccccc1 [Compound E160] | 65 s | 1.08 min | > 10 µM | > 10 µM | 0 | 0 | 
CC(=O)C(C)(C)OC(=O)c1cncn1[C@H](C)c1ccccc1 [Compound C8] | 170 s | 2.83 min |  |  |  |  | 
